Experimental data as given in article PMC6384781, “Design, Synthesis, Docking Studies and Monoamine Oxidase Inhibition of a Small Library of 1-acetyl- and 1-thiocarbamoyl-3,5-diphenyl-4,5-dihydro-(1H)-pyrazoles” (Molecules, 2019).

Columns and labels:
hMAO-A = molecular target: T1, hMAO-A (Homo sapiens, UniProt P21397); experiment: hMAO-A inhibition, Amplex Red fluorometric assay with kynuramine substrate; type: biochemical; conditions: recombinant hMAO-A, kynuramine 50 µM, mean ± SD of triplicate, max tested 100 µM
T1 construct: purchased Sigma-Aldrich; host or cells: insect cells (microsomes)
T1 sequence (P21397 1-527): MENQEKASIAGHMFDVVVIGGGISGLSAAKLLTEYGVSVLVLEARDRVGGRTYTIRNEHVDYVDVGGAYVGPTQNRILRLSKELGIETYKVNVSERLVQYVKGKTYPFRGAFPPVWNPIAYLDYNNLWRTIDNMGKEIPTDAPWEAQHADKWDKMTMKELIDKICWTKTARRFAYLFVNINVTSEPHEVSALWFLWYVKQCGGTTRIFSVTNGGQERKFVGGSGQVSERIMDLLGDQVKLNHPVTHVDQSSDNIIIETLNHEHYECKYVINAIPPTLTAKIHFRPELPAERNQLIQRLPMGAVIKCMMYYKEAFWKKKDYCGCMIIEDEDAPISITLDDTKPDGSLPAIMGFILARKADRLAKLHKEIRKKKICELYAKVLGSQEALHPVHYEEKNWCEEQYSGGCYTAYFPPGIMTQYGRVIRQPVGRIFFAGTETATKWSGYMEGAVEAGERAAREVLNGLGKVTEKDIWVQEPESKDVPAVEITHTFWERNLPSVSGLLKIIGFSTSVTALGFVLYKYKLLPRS
Protocol: (§1) The synthesized compounds P1–P18 were evaluated as hMAO inhibitors using the recombinant hMAOs as enzyme sources and kynuramine as substrate. A fluorometric method based on the Amplex® Red reagent (λex = 560 nm; λem = 590 nm) was used to measure hMAO activity. In this horseradish peroxidase-linked assay, Amplex® Red reacts with hydrogen peroxide that is produced by the MAO catalytic cycle to yield a fluorescent product, resorufin [28]. By thus recording the MAO-catalyzed formation of hydrogen peroxide in the presence of different concentrations of a test inhibitor, sigmoidal plots of enzyme activity versus the logarithm of inhibitor concentration were constructed from which IC50 values were estimated (GraphPad Prism 5). All IC50 values were measured in triplicate and are expressed as the mean ± standard deviation (SD). The inhibitory activities of compounds P1–P18 are summarized in Table 1 along with selectivity index (SI) values which are the ratio of IC50(hMAO-A)/IC50(hMAO-B). SI < 1 indicates selectivity for MAO-A, whereas SI > 1 indicates selectivity for the MAO-B isoform.
(§2) Microsomes from insect cells expressing recombinant hMAO-A or hMAO-B (5 mg protein/mL) served as enzyme sources, and were pre-aliquoted and stored at −70 °C. All enzymatic reactions were carried out to a final volume of 200 µL in black 96-well microtiter plates (Corning). Potassium phosphate buffer (100 mM, pH 7.4, made isotonic with KCl) served as reaction solvent. The reactions contained kynuramine (50 µM), various concentrations of the test inhibitor (0.003–100 μM), horseradish peroxidase (1 unit/mL) and Amplex® Red (200 µM). Stock solutions of the test inhibitors were prepared in DMSO and added to the reactions to yield a final concentration of 4% (v/v) DMSO. The reactions were initiated with the addition of hMAO-A (0.0075 mg protein/mL) or hMAO-B (0.015 mg protein/mL), and incubated at 37 °C for 20 min in a convection oven. At endpoint, the reactions were terminated with the addition of 10 μL pargyline (20 mM) and 10 μL (R)-deprenyl (5 mM) for hMAO-A and hMAO-B, respectively. The concentrations of resorufin in the reactions were determined by fluorescence spectrophotometry (λex = 560 nm, λem = 590 nm). Resorufin was quantitated with a linear calibration curve, which was constructed from standard solutions containing hydrogen peroxide (0.05–1.6 µM). Each standard was prepared to a final volume of 200 μL in potassium phosphate buffer and also contained horseradish peroxidase (1 unit/mL), Amplex® Red (200 µM), 4% DMSO as co-solvent, 10 μL pargyline (20 mM) for hMAO-A and 10 μL (R)-deprenyl (5 mM) for hMAO-B. The IC50 values were determined by constructing sigmoidal curves of MAO catalytic activity versus the logarithm of inhibitor concentration. For this purpose, the one site competition model incorporated into the Prism 5 software package (GraphPad, San Diego, CA, USA) was used. All experiments were carried out in triplicate and the IC50 values are expressed as mean ± standard deviation (SD).

hMAO-B = molecular target: T2, hMAO-B (Homo sapiens, UniProt P27338); experiment: hMAO-B inhibition, Amplex Red fluorometric assay with kynuramine substrate; type: biochemical; conditions: recombinant hMAO-B, kynuramine 50 µM, mean ± SD of triplicate, max tested 100 µM
T2 construct: purchased Sigma-Aldrich; host or cells: insect cells (microsomes)
T2 sequence (P27338 1-520): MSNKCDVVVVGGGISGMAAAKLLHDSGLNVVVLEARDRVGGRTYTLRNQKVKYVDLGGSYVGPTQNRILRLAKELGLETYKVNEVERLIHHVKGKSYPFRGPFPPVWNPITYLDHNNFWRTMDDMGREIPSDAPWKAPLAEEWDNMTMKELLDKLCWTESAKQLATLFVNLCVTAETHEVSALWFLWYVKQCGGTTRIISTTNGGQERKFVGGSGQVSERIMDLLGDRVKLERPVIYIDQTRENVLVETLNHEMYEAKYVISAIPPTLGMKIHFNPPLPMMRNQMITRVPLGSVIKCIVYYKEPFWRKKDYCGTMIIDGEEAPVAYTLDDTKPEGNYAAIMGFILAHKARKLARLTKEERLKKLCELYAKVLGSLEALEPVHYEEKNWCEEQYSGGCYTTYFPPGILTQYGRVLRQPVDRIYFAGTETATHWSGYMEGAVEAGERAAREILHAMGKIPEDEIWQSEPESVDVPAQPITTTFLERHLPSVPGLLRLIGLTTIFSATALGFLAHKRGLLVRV
Protocol: as §1, §2

Structure (SMILES): CC(=O)N1N=C(c2ccc(OCC=C(C)C)cc2)CC1c1cccc2ccccc12 (centres unmarked) [Compound P18, 1-(3-(4-((3-methylbut-2-en-1-yl)oxy)phenyl)-5-(naphthalen-1-yl)-4,5-dihydro-1H-pyrazol-1-yl)ethan-1-one]
- IC50 (hMAO-A): > 100 µM
- IC50 hMAO-A (hMAO-A): devoid of inhibition activity
- IC50 (hMAO-B): > 100 µM
- IC50 hMAO-B (hMAO-B): devoid of inhibition activity
- melting point: 78 to 80 °C
